Source: PubChem BioAssay (NCI)
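Following 48 hours of exposure in 96-well plates, responses at five concentrations were used to interpolate endpoints linearly. Definition used: TGI = concentration required for complete inhibition of growth.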

Tests used:
Test in all cases: NCI anticancer screen, dose series, 48 h
786-0 renal = system: 786-0 renal
CAKI-1 renal = system: CAKI-1 renal
IGROV1 ovarian = system: IGROV1 ovarian
M14 melanoma = system: M14 melanoma
MALME-3M melanoma = system: MALME-3M melanoma
MDA-MB-435 = system: MDA-MB-435
SF-268 CNS = system: SF-268 CNS
SK-MEL-2 melanoma = system: SK-MEL-2 melanoma
SK-MEL-5 melanoma = system: SK-MEL-5 melanoma
SNB-19 CNS = system: SNB-19 CNS
SR leukemia = system: SR leukemia
TK-10 renal = system: TK-10 renal
UACC-62 melanoma = system: UACC-62 melanoma

O=[N+]([O-])c1ccc(S(=O)(=O)N=Ic2ccccc2)cc1
TGI (786-0 renal): > 100 µM | TGI (CAKI-1 renal): > 100 µM | TGI (IGROV1 ovarian): > 100 µM | TGI (M14 melanoma): > 100 µM | TGI (MALME-3M melanoma): > 100 µM | TGI (MDA-MB-435): > 100 µM | TGI (SF-268 CNS): > 100 µM | TGI (SK-MEL-2 melanoma): > 100 µM | TGI (SK-MEL-5 melanoma): > 100 µM | TGI (SNB-19 CNS): > 100 µM | TGI (SR leukemia): > 100 µM | TGI (TK-10 renal): > 100 µM | TGI (UACC-62 melanoma): > 100 µM

O=C1NN=C2C=C(c3ccc(Cl)cc3)CC(c3cccc(Cl)c3)C12 (stereo not drawn)
TGI (786-0 renal): 62.8 µM | TGI (CAKI-1 renal): > 100 µM | TGI (IGROV1 ovarian): 59.1 µM | TGI (M14 melanoma): > 100 µM | TGI (MALME-3M melanoma): > 100 µM | TGI (MDA-MB-435): 40.2 µM | TGI (SF-268 CNS): > 100 µM | TGI (SK-MEL-2 melanoma): 45.3 µM | TGI (SK-MEL-5 melanoma): 39.9 µM | TGI (SNB-19 CNS): 36.1 µM | TGI (SR leukemia): 41.7 µM | TGI (TK-10 renal): 48.1 µM | TGI (UACC-62 melanoma): 33.6 µM

COc1cc(C2SCC(=O)N2c2ccc(Cl)c(Cl)c2)cc(OC)c1OC (stereo not drawn)
TGI (786-0 renal): > 100 µM | TGI (CAKI-1 renal): > 100 µM | TGI (IGROV1 ovarian): > 100 µM | TGI (M14 melanoma): > 100 µM | TGI (MALME-3M melanoma): > 100 µM | TGI (MDA-MB-435): 34 µM | TGI (SF-268 CNS): > 100 µM | TGI (SK-MEL-2 melanoma): > 100 µM | TGI (SK-MEL-5 melanoma): > 100 µM | TGI (SNB-19 CNS): > 100 µM | TGI (SR leukemia): 83.8 µM | TGI (TK-10 renal): > 100 µM | TGI (UACC-62 melanoma): > 21.9 µM

CC1(C)OC(=C(C#N)C#N)C(C#N)=C1/C=C/c1ccncc1
TGI (786-0 renal): 3.66 µM | TGI (CAKI-1 renal): 3.64 µM | TGI (IGROV1 ovarian): 4.21 µM | TGI (M14 melanoma): 6.56 µM | TGI (MALME-3M melanoma): 6.31 µM | TGI (MDA-MB-435): 10.6 µM | TGI (SF-268 CNS): 6.5 µM | TGI (SK-MEL-2 melanoma): 6.44 µM | TGI (SK-MEL-5 melanoma): 14.4 µM | TGI (SNB-19 CNS): 6.16 µM | TGI (SR leukemia): 4.74 µM | TGI (TK-10 renal): 4.12 µM | TGI (UACC-62 melanoma): 3.93 µM

O=C(c1cc(Cl)cc(Cl)c1)N1CCN(C(=O)c2cc(Cl)cc(Cl)c2)C1=S
TGI (786-0 renal): 7.58 µM | TGI (CAKI-1 renal): 25.2 µM | TGI (IGROV1 ovarian): 32.8 µM | TGI (M14 melanoma): 27.3 µM | TGI (MALME-3M melanoma): 25.5 µM | TGI (MDA-MB-435): 29.9 µM | TGI (SF-268 CNS): 37.6 µM | TGI (SK-MEL-2 melanoma): 34.1 µM | TGI (SK-MEL-5 melanoma): 33.7 µM | TGI (SNB-19 CNS): 37.1 µM | TGI (SR leukemia): 11.3 µM | TGI (TK-10 renal): 23.2 µM | TGI (UACC-62 melanoma): 23.5 µM

O=c1c2c(-c3ccccc3)onc2n(-c2ccccc2)c(=O)n1-c1ccccc1
TGI (786-0 renal): > 100 µM | TGI (CAKI-1 renal): > 100 µM | TGI (IGROV1 ovarian): 52.1 µM | TGI (M14 melanoma): 49.7 µM | TGI (MALME-3M melanoma): 34.5 µM | TGI (MDA-MB-435): > 100 µM | TGI (SF-268 CNS): > 100 µM | TGI (SK-MEL-2 melanoma): 25 µM | TGI (SK-MEL-5 melanoma): > 100 µM | TGI (SNB-19 CNS): > 100 µM | TGI (SR leukemia): > 100 µM | TGI (TK-10 renal): 58.2 µM | TGI (UACC-62 melanoma): 32 µM
